Measured values as given in patent US20090029992A1, “SUBSTITUTED PYRAZOLE COMPOUNDS” (priority 2007, published 2009).

Columns and labels:
[1] = target: T1, N-terminal His-tagged human Src (Homo sapiens, UniProt P12931); test: Src kinase inhibition assay (33P-ATP filter assay); type: biochemical
T1 construct: His (N); purchased Upstate USA Inc, 706 Forest Street, Charlottesville, Va

HCT116 cells = test: Whole cell cytotoxicity assay, Sulforhodamine B; type: cell-based; settings: Homo sapiens, HCT-116, HCT116, 96 hours incubation, SRB; for GI50: read-out: GI50 HCT116 cell growth; for IC50: read-out: IC50 values in this assay (HCT116 cell growth)
Summary of the method: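 HCT116 cells (500/well) in DMEM/10% FBS/2 mM glutamine were preincubated 24 h, then exposed to compound for 96 h at 37 °C, 5% CO2, in duplicate. Cells were fixed with TCA and stained with sulforhodamine B (A570). GI50, TGI and LC50 were derived relative to a time-zero plate and an untreated control.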

recombinant Aurora A = target: T2, recombinant Aurora A (Homo sapiens, UniProt O14965); test: Aurora A (Aurora 2) inhibition assay, Z'-Lyte kinase assay; type: biochemical; settings: ATP 10 μM, 1 h
T2 construct: purchased Upstate, Lake Placid, N.Y
T2 sequence (O14965 1-403): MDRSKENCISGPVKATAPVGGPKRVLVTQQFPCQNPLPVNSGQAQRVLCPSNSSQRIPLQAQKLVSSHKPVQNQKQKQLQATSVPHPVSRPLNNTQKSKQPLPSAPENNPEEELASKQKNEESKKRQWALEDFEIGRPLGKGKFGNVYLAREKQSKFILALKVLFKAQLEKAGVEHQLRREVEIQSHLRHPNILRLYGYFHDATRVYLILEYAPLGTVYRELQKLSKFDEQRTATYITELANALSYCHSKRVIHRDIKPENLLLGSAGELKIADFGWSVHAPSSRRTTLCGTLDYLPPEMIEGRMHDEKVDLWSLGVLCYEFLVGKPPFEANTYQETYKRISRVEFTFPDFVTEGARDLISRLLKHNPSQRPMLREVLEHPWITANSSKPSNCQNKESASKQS
Procedure: Compounds were tested for their potency against recombinant Aurora A (Upstate, Lake Placid, N.Y.) using the PanVera Z′-Lyte kinase assay kit—Ser/Thr 1 peptide (Invitrogen, Carlsbad, Calif.). Assays were carried out in kinase assay buffer (50 mM HEPES, pH 7.5, 10 mM MgCl2, 5 mM EGTA, 0.05% Brij-35, 2 mM DTT). Test compounds were initially dissolved in DMSO at 100× the highest tested concentration, then serially diluted to 4× test concentrations in kinase assay buffer. Next, Aurora A (final concentration 200-500 ng/mL), Z′-Lyte Ser/Thr 1 peptide (final concentration 2 μM) and ATP (final concentration 10 μM) were added according to the manufacturer's instructions. Assays were carried out in half-area 96-well white polystyrene assay plates (Corning, Corning, N.Y.) in a final volume of 20 μl. The reaction was allowed to proceed for 1 h at room temperature in the dark, at which point the development reagent and stop reagent were added according to the manufacturer's instructions. Coumarin (Ex. 400 nm, Em. 465 nm) and fluorescein (Ex. 400 nm, Em. 565 nm) fluorescence values were measured on a SpectraFluor Plus plate reader (Tecan, Durham, N.C.). The emission ratio (coumarin/fluorescein) was determined and used to calculate the percent phosphorylation for each well. Wells containing substrate but no kinase and wells containing a phosphopeptide control were used to set 0% and 100% phosphorylation values, respectively. Typically 20-40% of the substrate was phosphorylated in wells without inhibitor. Dose-response curves of relative Aurora A activity vs. inhibitor concentration were plotted with Grafit (Erithacus Software, Horley, Surrey, UK).

[2] = group with IC50 greater than 100 nM

T1 sequence (P12931 whole entry): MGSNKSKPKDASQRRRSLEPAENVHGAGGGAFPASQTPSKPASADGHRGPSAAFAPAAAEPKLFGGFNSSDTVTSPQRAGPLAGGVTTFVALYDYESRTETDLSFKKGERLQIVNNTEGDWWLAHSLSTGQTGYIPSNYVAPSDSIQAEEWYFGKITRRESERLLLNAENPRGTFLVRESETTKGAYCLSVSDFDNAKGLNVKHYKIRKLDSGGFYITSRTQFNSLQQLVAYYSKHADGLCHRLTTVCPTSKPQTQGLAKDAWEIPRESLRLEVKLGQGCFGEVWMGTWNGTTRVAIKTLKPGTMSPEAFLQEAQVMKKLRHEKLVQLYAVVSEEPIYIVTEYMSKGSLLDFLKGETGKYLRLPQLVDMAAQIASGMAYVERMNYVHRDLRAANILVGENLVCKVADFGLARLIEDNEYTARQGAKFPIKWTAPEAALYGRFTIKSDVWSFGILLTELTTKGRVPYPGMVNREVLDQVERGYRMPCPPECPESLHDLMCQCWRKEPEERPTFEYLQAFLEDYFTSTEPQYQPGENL

## Cc1cc(Nc2cc(NCCN3CCOCC3)nc(-c3ccccc3)n2)n[nH]1 [Compound 11, N^4-(5-methyl-1H-pyrazol-3-yl)-N^6-(2-morpholinoethyl)-2-phenylpyrimidine-4,6-diamine]
[1]; [2]
  IC50: ≤ 1000 nM
HCT116 cells
  GI50: ≤ 1000 nM
Recombinant Aurora A
  IC50: ≤ 100 nM

## Cc1cc(Nc2cc(N3CCN(C)CC3)nc(-c3ccccc3C)n2)n[nH]1 [Compound 40, N-(5-methyl-1H-pyrazol-3-yl)-6-(4-methylpiperazin-1-yl)-2-o-tolylpyrimidin-4-amine]
[1]; 40 minutes at room temperature
  IC50: ≤ 100 nM
HCT116 cells
  IC50: 1000 to 10000 nM
Recombinant Aurora A; [2]
  IC50: ≤ 1000 nM

## COc1ccc(-c2nc(Nc3cc(C)[nH]n3)cc(N3CCN(C)CC3)n2)cc1 [Compound 41, 2-(4-methoxyphenyl)-N-(5-methyl-1H-pyrazol-3-yl)-6-(4-methylpiperazin-1-yl)pyrimidin-4-amine]
[1]; 40 minutes at room temperature
  IC50: ≤ 100 nM
HCT116 cells
  GI50: ≤ 1000 nM
Recombinant Aurora A
  IC50: ≤ 100 nM

## Cc1cc(Nc2cc(N(C)CCN(C)C)nc(-c3cc4ccccc4n3C)n2)n[nH]1 [Compound 4, N^4-(2-(dimethylamino)ethyl)-N^4-methyl-2-(1-methyl-1H-indol-2-yl)-N^6-(5-methyl-1H-pyrazol-3-yl)pyrimidine-4,6-diamine]
[1]; 40 minutes at room temperature
  IC50: ≤ 100 nM
HCT116 cells
  GI50: ≤ 1000 nM
Recombinant Aurora A; [2]
  IC50: ≤ 1000 nM

## COCCN(C)c1cc(Nc2cc(C)[nH]n2)nc(-c2cc(F)ccc2F)n1 [Example 184, 2-(2,5-difluorophenyl)-N^4-(2-methoxyethyl)-N^4-methyl-N^6-(5-methyl-1H-pyrazol-3-yl)pyrimidine-4,6-diamine]
[1]; [2]
  IC50: ≤ 1000 nM
HCT116 cells
  IC50: 1000 to 10000 nM
Recombinant Aurora A; [2]
  IC50: ≤ 1000 nM

## Cc1cc(Nc2cc(N3CCN(C)CC3)nc(-c3cc4ccccc4o3)n2)n[nH]1 [Compound 1, 2-(benzofuran-2-yl)-N-(5-methyl-1H-pyrazol-3-yl)-6-(4-methylpiperazin-1-yl)pyrimidin-4-amine]
[1]; 40 minutes at room temperature
  IC50: ≤ 100 nM
HCT116 cells
  GI50: ≤ 1000 nM
Recombinant Aurora A
  IC50: ≤ 100 nM

## Cc1cc(Nc2cc(N3CCN(C)CC3)nc(-c3ccc(F)c(F)c3)n2)n[nH]1 [Example 168, 2-(3,4-difluorophenyl)-N-(5-methyl-1H-pyrazol-3-yl)-6-(4-methylpiperazin-1-yl)pyrimidin-4-amine]
[1]; 40 minutes at room temperature
  IC50: ≤ 100 nM
HCT116 cells
  GI50: ≤ 1000 nM
Recombinant Aurora A
  IC50: ≤ 100 nM

## Cc1cc(Nc2cc(N3CCN(C)CC3)nc(-c3cccc4ccoc34)n2)n[nH]1 [Example 203, 2-(benzofuran-7-yl)-N-(5-methyl-1H-pyrazol-3-yl)-6-(4-methylpiperazin-1-yl)pyrimidin-4-amine]
[1]; 40 minutes at room temperature
  IC50: ≤ 100 nM
HCT116 cells
  IC50: 1000 to 10000 nM
Recombinant Aurora A
  IC50: ≤ 100 nM

## Cc1cc(Nc2cc(NC3CCOCC3)nc(-c3cccc4ccoc34)n2)n[nH]1 [Example 204, 2-(benzofuran-7-yl)-N^4-(5-methyl-1H-pyrazol-3-yl)-N^6-(tetrahydro-2H-pyran-4-yl)pyrimidine-4,6-diamine]
[1]; [2]
  IC50: ≤ 1000 nM
HCT116 cells
  IC50: 1000 to 10000 nM
Recombinant Aurora A; [2]
  IC50: ≤ 1000 nM

## Cc1cc(Nc2cc(N3CCN(C)CC3)nc(-c3cc4cc(NS(=O)(=O)C5CC5)ccc4o3)n2)n[nH]1 [Example 155, N-(2-(4-(5-methyl-1H-pyrazol-3-ylamino)-6-(4-methylpiperazin-1-yl)pyrimidin-2-yl)benzofuran-5-yl)cyclopropanesulfonamide]
[1]; 40 minutes at room temperature
  IC50: ≤ 100 nM
HCT116 cells
  GI50: ≤ 1000 nM
Recombinant Aurora A
  IC50: ≤ 100 nM

## Cc1cc(Nc2cc(NC3CCOCC3)nc(-c3ccc(F)cc3)n2)n[nH]1 [Compound 19, 2-(4-fluorophenyl)-N^4-(5-methyl-1H-pyrazol-3-yl)-N^6-(tetrahydro-2H-pyran-4-yl)pyrimidine-4,6-diamine]
[1]; [2]
  IC50: ≤ 1000 nM
HCT116 cells
  IC50: 1000 to 10000 nM
Recombinant Aurora A; [2]
  IC50: ≤ 1000 nM

## CC(=O)c1cccc(-c2nc(Nc3cc(C)[nH]n3)cc(N3CCN(C)CC3)n2)c1 [Example 165, 1-(3-(4-(5-methyl-1H-pyrazol-3-ylamino)-6-(4-methylpiperazin-1-yl)pyrimidin-2-yl)phenyl)ethanone]
HCT116 cells
  GI50: ≤ 1000 nM
Recombinant Aurora A
  IC50: ≤ 100 nM

## COCCNc1cc(Nc2cc(C)[nH]n2)nc(-c2ccccc2)n1 [Compound 10, N^4-(2-methoxyethyl)-N^6-(5-methyl-1H-pyrazol-3-yl)-2-phenylpyrimidine-4,6-diamine]
HCT116 cells
  IC50: 1000 to 10000 nM
Recombinant Aurora A
  IC50: ≤ 100 nM
